Experimental data reported in ChEMBL document CHEMBL1150513, “A Hammett correlation for CC-1065 and duocarmycin analogs: Magnitude of substituent electronic effects on functional reactivity” (Bioorg Med Chem Lett, 1996).
Values joined by “and” are separate entries in the source; they are usually repeats but may differ in a detail not shown here. Equal entries are not always repeated.

Experiments:
[1] = Aqueous solvolysis, K value at a pH of 3.0.; format: ADME; settings: buffer, pH 3
[2] = Half life at a pH of 3.0.; format: ADME; settings: pH 3
L1210 = test: Compound was tested in vitro for cytotoxic potency against L1210 leukemia.; format: functional, cell-based; settings: Mus musculus
[3] = Half life at a pH of 2.0.; format: ADME; settings: pH 2
[4] = Kinetic constant at 0.1 equivalent H+ and 20 equivalent CH3OH.; format: ADME
[5] = Kinetic constant at 0.25 equivalent H+ and 100 equivalent CH3OH.; format: ADME
[6] = Half life at 0.1 equivalent H+ and 500 equivalent CH3OH.; format: ADME
[7] = Aqueous solvolysis, K value at a pH of 2.0.; format: ADME; settings: buffer, pH 2
[8] = Half life at 0.1 equivalent H+ and 20 equivalent CH3OH.; format: ADME
[9] = Kinetic constant at 0.1 equivalent H+ and 500 equivalent CH3OH.; format: ADME
[10] = Half life at 0.25 equivalent H+ and 100 equivalent CH3OH.; format: ADME
[11] = Kinetic constant at 0.1 equivalent H+ and 100 equivalent CH3OH.; format: ADME

Row | SMILES | k [1] [s⁻¹] | half-life [2] [h] | IC50 (L1210) [nM] | further results
1 | Cc1c[nH]c2c1[C@@]13C[C@@H]1CN(C(=O)OC(C)(C)C)C3=CC2=O | 5.26e-06 |  |  | 
2 | COC(=O)N1C[C@H]2C[C@@]23C1=CC(=O)c1ccccc13 | 3.4e-06 | 57 | 140 | 
3 | CCC(=O)N1C[C@H]2C[C@@]23C1=CC(=O)c1ccccc13 | 2e-06 | 96 | 110 | 
4 | CCS(=O)(=O)N1C[C@H]2C[C@@]23C1=CC(=O)c1ccccc13 | 5e-07 | 383 | 24 | 
5 | CC(C)(C)OC(=O)N1C[C@H]2C[C@@]23C1=CC(=O)c1ccc(C#N)cc13 | 9e-07 | 213 | 20 | half-life [3]: 24.2 h; k [4]: 0.2 s⁻¹; k [5]: 7.4 s⁻¹; T1/2 [6]: 0.92 h and 0.34 h; k [7]: 7.9e-06 s⁻¹; half-life [8]: 9.2 h; k [9]: 5.6 s⁻¹; half-life [10]: 0.26 h; k [11]: 2.1 s⁻¹
6 | COC(=O)c1cc2c([nH]1)C(=O)C=C1N(C(=O)OC(C)(C)C)C[C@H]3C[C@]123 | 1.08e-06 |  |  | 
7 | CNC(=O)N1C[C@H]2C[C@@]23C1=CC(=O)c1ccccc13 | 5.3e-06 | 36 | 200 | 

More lines, main results first:

Row | k [1] [s⁻¹] | half-life [2] [h] | SMILES | IC50 (L1210) [nM] | further results
8 | 1.75e-06 |  | COC(=O)[C@]1(C)N=C2C(=O)C=C3N(C(=O)OC(C)(C)C)C[C@H]4C[C@@]34C2=C1O | 1000 | 
9 | 1.75e-06 | 110 | COc1ccc2c(c1)[C@@]13C[C@@H]1CN(C(=O)OC(C)(C)C)C3=CC2=O | 90 | half-life [3]: 11.8 h; k [7]: 1.62e-05 s⁻¹
10 | 9.07e-06 | 2.1 | CC(C)(C)OC(=O)N1CC[C@H]2C[C@@]23C1=CC(=O)c1ccccc13 | 2000 | 
11 | 1.98e-06 | 0.01 | CC(C)(C)OC(=O)N1C[C@H]2C[C@]23C=CC(=O)C=C13 | 18000 | 
12 | 1.45e-06 | 133 | CC(C)(C)OC(=O)N1C[C@H]2C[C@@]23C1=CC(=O)c1ccccc13 | 80 | k [7]: 1.53e-05 s⁻¹
